Assay results from paper PMC4319009, “Small Molecules Dorsomorphin and LDN-193189 Inhibit Myostatin/GDF8 Signaling and Promote Functional Myoblast Differentiation” (The Journal of Biological Chemistry, 2014).
pKd: −log10 of the molar value.

Legend:
ActRIIA = target: T1, ActRIIA (Homo sapiens, UniProt P27037); test: isothermal titration calorimetry; assay type: binding
T1 construct: gene ACVR2A; kinase domain residues 191-488, N-terminal His6 removed by TEV protease, vector pFB-LIC-Bse, baculovirus Sf9; two molecules per asymmetric unit
T1 sequence (P27037 191-488): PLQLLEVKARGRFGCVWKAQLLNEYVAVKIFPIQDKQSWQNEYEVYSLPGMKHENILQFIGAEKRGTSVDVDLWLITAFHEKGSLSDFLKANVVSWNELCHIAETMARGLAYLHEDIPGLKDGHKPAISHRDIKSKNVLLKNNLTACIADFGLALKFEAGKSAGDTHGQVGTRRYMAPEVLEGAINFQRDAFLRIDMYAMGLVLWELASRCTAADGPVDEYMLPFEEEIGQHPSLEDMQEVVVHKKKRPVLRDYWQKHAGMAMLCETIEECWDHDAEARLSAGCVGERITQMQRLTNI
Source text: isothermal titration calorimetry on ActRIIA

ActRIIB = target: T2, ActRIIB (Homo sapiens, UniProt Q13705); test: isothermal titration calorimetry; assay type: binding
T2 construct: gene ACVR2B; kinase domain residues 190-487, N-terminal His6 removed by TEV protease, vector pFB-LIC-Bse, baculovirus Sf9
T2 sequence (Q13705 190-487): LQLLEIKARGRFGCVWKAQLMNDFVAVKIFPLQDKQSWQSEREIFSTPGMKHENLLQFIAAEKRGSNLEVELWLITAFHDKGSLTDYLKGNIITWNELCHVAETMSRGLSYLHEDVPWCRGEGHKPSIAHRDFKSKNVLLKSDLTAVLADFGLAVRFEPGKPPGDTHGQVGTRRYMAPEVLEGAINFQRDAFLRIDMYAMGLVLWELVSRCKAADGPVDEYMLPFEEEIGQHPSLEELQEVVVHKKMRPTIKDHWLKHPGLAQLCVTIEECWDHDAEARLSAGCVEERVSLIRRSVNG
Source text: isothermal titration calorimetry on ActRIIB

pKd (ActRIIA) | pKd (ActRIIB) | Compound
7.85 | – | c1ccc2c(-c3cnn4cc(-c5ccc(N6CCNCC6)cc5)cnc34)ccnc2c1 [LDN-193189]
7.24 | 7.52 | c1cc(-c2cnn3cc(-c4ccc(OCCN5CCCCC5)cc4)cnc23)ccn1 [Dorsomorphin]
